IC50 data for 15 molecules are collected here from patent publication US11396517B1, “Exo-aza spiro inhibitors of menin-MLL interaction” (Janssen Pharmaceutica NV, priority 2017, dated 2022).

Where two headings read alike, the source gives them in different places.

One experiment deals with T1, menin (Homo sapiens, UniProt O00255, T541A).
T1 construct: Menin (a.a. 1-610-6×his tag)
T1 sequence (O00255 with tags, fused parts or gaps T541A): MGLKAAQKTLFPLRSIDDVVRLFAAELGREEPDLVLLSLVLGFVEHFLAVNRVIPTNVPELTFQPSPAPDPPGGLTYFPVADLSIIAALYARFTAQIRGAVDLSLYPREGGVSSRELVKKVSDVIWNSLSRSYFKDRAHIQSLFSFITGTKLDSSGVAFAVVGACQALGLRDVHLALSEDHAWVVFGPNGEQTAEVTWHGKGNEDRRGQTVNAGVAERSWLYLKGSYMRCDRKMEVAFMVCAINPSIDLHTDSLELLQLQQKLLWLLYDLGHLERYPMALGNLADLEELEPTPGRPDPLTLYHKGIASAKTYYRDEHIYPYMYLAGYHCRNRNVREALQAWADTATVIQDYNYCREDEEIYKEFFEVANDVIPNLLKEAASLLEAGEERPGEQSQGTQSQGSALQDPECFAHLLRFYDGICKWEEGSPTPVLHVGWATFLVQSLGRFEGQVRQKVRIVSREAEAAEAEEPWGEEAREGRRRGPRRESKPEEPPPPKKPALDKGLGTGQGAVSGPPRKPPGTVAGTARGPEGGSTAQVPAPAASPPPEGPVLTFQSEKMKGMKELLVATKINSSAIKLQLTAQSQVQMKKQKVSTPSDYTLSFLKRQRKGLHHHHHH
Description: Menin/MLL homogenous time-resolved fluorescence (HTRF) assay. It counts as binding. An outline of the steps:
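Displacement of 75 nM FITC-MBM1 from terbium-cryptate-labeled His-tagged menin 1-610 ([…]) was read as the 520/490 nm HTRF ratio. Compound (11-point, 3-fold series) got 5 min with menin before peptide, then 15 min at ambient; 0.5% DMSO, Tris pH 7.5.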
In general terms: TR-FRET usually uses a lanthanide donor and a delayed reading to cut background.

The next experiment concerns MV-4-11. Description: Proliferation assay A (spheroid assay) MV-4-11. It counts as cell-based, human. Particulars: MV-4-11 cells, 8 d, AUC of confluence against time, absolute IC50, read-out: (3a) Spheroid assay MV-4-11 (IC50(μM)) Assay A. The method, boiled down:
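Spheroid growth in ultra-low-attachment round-bottom wells (1,500 MV-4-11, 300 MOLM14 or 750 K562 cells), compound titration at 0.3% DMSO, 8 d at 37° C. Confluence imaged every 4 h; AUC from t=0 baseline expressed as % of DMSO control and fitted for absolute IC50.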

A further experiment concerns MOLM14. In words: Proliferation assay A (spheroid assay) MOLM14. It counts as cell-based, human. Particulars: MOLM14 cells, 8 d, AUC of confluence against time, absolute IC50, read-out: (3a) Spheroid assay MOLM14 (IC50(μM)) Assay A. The protocol:
3a) Proliferation Assay A
The anti-proliferative effect of menin/MLL protein/protein interaction inhibitor test compounds was assessed in human leukemia cell lines. The cell lines MV-4-11 and MOLM14 harbor MILL translocations and express the MILL fusion proteins MLL-AF4 and MLL-AF9, respectively, as well as the wildtype protein from the second allele. […] K562 was used as a control cell line containing two MLL wildtype alleles in order to exclude compounds that display general cytotoxic effects.
MV-4-11 and MOLM14 were cultured in RPMI-1640 (Sigma Aldrich) supplemented with 10% fetal bovine serum (HyClone), 2 mM L-glutamine (Sigma Aldrich) and 50 μg/ml gentamycin (Gibco). K562 were propagated in RPMI-1640 (Sigma Aldrich) supplemented with 20% fetal bovine serum (HyClone), 2 mM L-glutamine (Sigma Aldrich) and 50 μg/ml gentamycin (Gibco).
In order to assess the anti-proliferative effects, 1,500 MV-4-11, 300 MOLM14 or 750 K562 cells were seeded in 200 μl media per well in 96-well round bottom, ultra-low attachment plates (Costar, catalogue number 7007). Cell seeding numbers were chosen based on growth curves to ensure linear growth throughout the experiment. Test compounds were added at different concentrations and the DMSO content was normalized to 0.3%. Cells were incubated for 8 d at 37° C. and 5% CO2. Spheroid like growth was monitored in real-time by live-cell imaging (IncuCyteZOOM, Essenbio, 4× objective) acquiring one image every four hours for 8 d. Confluence (%) as a measure of spheroid size was determined using an integrated analysis tool.
In order to determine the cumulative effect of the test compounds over time, the area under the curve (AUC) in a plot of confluence against time was calculated. Confluence at the beginning of the experiment (t=0) was used as baseline for the AUC calculation.
Absolute IC50 values were calculated according to the following procedure: % Control=(AUC sample/AUC control)*100
AUC control mean AUC of control values (cells without compound/DMSO as vehicle control)
A non-linear curve fit was applied using the least squares (ordinary) fit method to the plot of % control versus compound concentration. Based on this, the absolute IC50 value (half maximal inhibitory concentration of the test compound causing an anti-proliferative effect of 50% relative to the vehicle control) was calculated.

Where [1] appears, read: location 2, read-out: (2) location 2 Menin HTRF assay (IC50 (nM)).
The mark [2] stands for this setting: location 1, read-out: (2) location 1 Menin HTRF assay (IC50 (nM)).

Usually IC50 stands for the point on the concentration scale where inhibition reaches its midpoint. For the molecule `N#CCc1ccc(NC2CCC3(C2)CN(c2ncnc4sc(CC(F)(F)F)cc24)C3)cc1` (racemic) [Compound 278], the IC50 at menin (setting [1]) was 22.8 nM; in the experiment on MV-4-11 (Homo sapiens, MV4-11, 192 h), greater than 3.75 µM; with MOLM14 (Homo sapiens, MOLM-14, 192 h), greater than 3.75 µM.

For `FC(F)(F)Cc1cc2c(N3CC[C@@]4(CC[C@@H](NCc5ccccc5)C4)C3)ncnc2s1` (single isomer, unassigned) [Compound 3], the IC50 on menin (setting [2]) came out at 75.7 nM; on menin (setting [1]) it was 10 nM; with MV-4-11 (Homo sapiens, MV4-11, 192 h), 0.75 µM; in the experiment with MOLM14 (Homo sapiens, MOLM-14, 192 h), 2.39 µM.

In the case of `FC(F)(F)Cc1cc2c(N3CCC4(CCC(Nc5ccccc5)C4)C3)ncnc2s1` (single isomer, unassigned) [Compound 33], the IC50 on menin (setting [1]) is 2050 nM; in the experiment with MV-4-11 (Homo sapiens, MV4-11, 192 h), 5.11 µM; with MOLM14 (Homo sapiens, MOLM-14, 192 h) it was 4.45 µM.

On to `O=c1[nH]c2ccc(CNC3CCC4(C3)CN(c3ncnc5sc(CC(F)(F)F)cc35)C4)cc2o1` (single isomer, unassigned) [Compound 55], for which the IC50 came out at 7 nM on menin (setting [1]); 0.28 µM with MV-4-11 (Homo sapiens, MV4-11, 192 h); 1.27 µM in the experiment with MOLM14 (Homo sapiens, MOLM-14, 192 h).

As to `O=c1[nH]c2cc(CNC3CCC4(C3)CN(c3ncnc5sc(CC(F)(F)F)cc35)C4)ccc2o1` (single isomer, unassigned) [Compound 57], the IC50 at menin (setting [1]) amounted to 3.6 nM; with MV-4-11, 0.09 µM; in the experiment with MOLM14, 0.44 µM.

In the case of `COc1nc(N2CCC3(CC(NCc4ccccc4)C3)C2)c2cc(CC(F)(F)F)sc2n1` (single isomer, unassigned) [Compound 60], the IC50 was found to be 23.2 nM at menin (setting [1]); 3.2 µM in the experiment on MV-4-11 (Homo sapiens, MV4-11, 192 h); 3.46 µM in the experiment on MOLM14 (Homo sapiens, MOLM-14, 192 h).

`O=c1[nH]c2ccc(CNC3CCC4(C3)CN(c3ncnc5sc(CC(F)(F)F)cc35)C4)cc2[nH]1` (single isomer, unassigned) [Compound 108]: the IC50 was 5.2 nM on menin (setting [1]); 0.53 µM in the experiment on MV-4-11; greater than 3.75 µM with MOLM14 (Homo sapiens, MOLM-14, 192 h).

On to `FC(F)(F)Cc1cc2c(N3CCC4(CC(Nc5ccccc5)C4)C3)ncnc2s1` (single isomer, unassigned) [Compound 149], for which the IC50 is 37.5 nM at menin (setting [1]); 3.67 µM with MV-4-11 (Homo sapiens, MV4-11, 192 h); greater than 3.75 µM in the experiment with MOLM14 (Homo sapiens, MOLM-14, 192 h).

With `N#CC1(c2ccc(NC3CC4(CCN(c5ncnc6sc(CC(F)(F)F)cc56)C4)C3)cc2)CC1` (single isomer, unassigned) [Compound 172], the IC50 on menin (setting [1]) was 8.4 nM; in the experiment on MV-4-11 (Homo sapiens, MV4-11, 192 h) it was 0.9 µM; in the experiment on MOLM14 (Homo sapiens, MOLM-14, 192 h), 3.05 µM.

Take `CC(C)(N[C@H]1CCC2(C1)CN(c1ncnc3sc(CC(F)(F)F)cc13)C2)c1ccccc1` (single isomer, unassigned) [Compound 281]: the IC50 at menin (setting [1]) was found to be 62.7 nM; in the experiment on MV-4-11 (Homo sapiens, MV4-11, 192 h), 1.11 µM; in the experiment with MOLM14 (Homo sapiens, MOLM-14, 192 h) it was 1.78 µM.

As to `N#CCc1ccc(NC2CC3(CCN(c4ncnc5sc(CC(F)(F)F)cc45)C3)C2)cc1` (single isomer, unassigned) [Compound 306], the IC50 at menin (setting [1]) was 78.2 nM; with MV-4-11, 2.25 µM; in the experiment on MOLM14 (Homo sapiens, MOLM-14, 192 h), 3.82 µM.

For `Nc1nc(N2CCC3(CC(Nc4ccc5[nH]c(=O)oc5c4)C3)C2)c2cc(CC(F)(F)F)sc2n1` (single isomer, unassigned) [Compound 386], the concentration for half-maximal inhibition (IC50) on menin (setting [1]) is 86.8 nM; with MV-4-11 (Homo sapiens, MV4-11, 192 h), greater than 3.75 µM; with MOLM14 (Homo sapiens, MOLM-14, 192 h) it was 1.99 µM.

As to `FC(F)(F)Cc1cc2c(N3CCC4(CCC(NCc5ccccc5)CC4)C3)ncnc2s1` (stereo not drawn) [Compound 1], the IC50 on menin (setting [2]) was 3.7 nM; on menin (setting [1]) it was 5 nM; in the experiment on MV-4-11 (Homo sapiens, MV4-11, 192 h), 0.17 µM; with MOLM14 (Homo sapiens, MOLM-14, 192 h) it was 0.79 µM.

Regarding `O=c1[nH]c2ccc(CNC3CCC4(C3)CN(c3ncnc5sc(CC(F)(F)F)cc35)C4)cc2[nH]1` (stereo not drawn) [Compound 14], the IC50 at menin (setting [2]) amounted to 5.9 nM; on menin (setting [1]), 0.8 nM; in the experiment on MV-4-11 (Homo sapiens, MV4-11, 192 h), 0.39 µM; in the experiment on MOLM14 (Homo sapiens, MOLM-14, 192 h), 2.3 µM.

For `O=c1[nH]c2ccc(CNC3CCC4(C3)CN(c3ncnc5sc(CC(F)(F)F)cc35)C4)cc2o1` (stereo not drawn) [Compound 15], the IC50 on menin (setting [1]) was determined as 2.2 nM; with MV-4-11 (Homo sapiens, MV4-11, 192 h), 0.25 µM; in the experiment on MOLM14 (Homo sapiens, MOLM-14, 192 h) it was 1.29 µM.
